Measurements: PubChem BioAssay AID278 (DTP/NCI, 2004)
Values joined by “and” are separate entries in the source; they are usually repeats but may differ in a detail not shown here. Identical values can stand only once. Inconclusive results are not listed.

System: nude mice, A549 intrarenal xenograft, tumor weight change
Experiment: NCI In Vivo Anticancer Drug Screen. Data for tumor model A549 Human Adenocarcinoma of Lung with characteristics of Type II Alveolar Epithelial cells (intrarenal inoculation) in NU/NU BALB/C (nude) mice
Settings: endpoint: mean tumor weight change, schedule: Q04DX003 (ip), higher = larger tumour
Method in brief: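 Mice bearing transplantable tumors were treated and survival or tumor size recorded. Values are given as treated-group measurement divided by vehicle-control measurement (T/C).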

[1] = dose: 150.0 mg/kg/injection, vehicle: saline with Tween-80
[2] = dose: 12.5 mg/kg/injection, vehicle: saline
[3] = dose: 25.0 mg/kg/injection, vehicle: saline
[4] = dose: 75.0 mg/kg/injection, vehicle: saline with Tween-80
[5] = dose: 25.0 mg/kg/injection, vehicle: saline with Tween-80
[6] = dose: 50.0 mg/kg/injection, vehicle: saline with Tween-80
[7] = dose: 300.0 mg/kg/injection, vehicle: saline with Tween-80
[8] = dose: 15.0 mg/kg/injection, vehicle: saline with Tween-80
[9] = dose: 30.0 mg/kg/injection, vehicle: saline with Tween-80
[10] = dose: 100.0 mg/kg/injection, vehicle: saline with Tween-80
[11] = dose: 200.0 mg/kg/injection, vehicle: saline with Tween-80

CN(C)CCNc1ccc(CO)c2sc3ccc(O)cc3c(=O)c12
T/C (dose: 54.0 mg/kg/injection, vehicle: saline with Tween-80): 5 % of control
T/C (dose: 90.0 mg/kg/injection, vehicle: saline with Tween-80): 3 % of control
T/C [1]: 2 % of control and 12 % of control
T/C (dose: 250.0 mg/kg/injection, vehicle: saline with Tween-80): -36 % of control

CNC(=O)OCc1nc(SC)n(C)c1COC(=O)NC
T/C [2]: 156 % of control
T/C [3]: 28 % of control

COc1cccc(Sc2ccc([N+](=O)[O-])c3no[n+]([O-])c23)c1
T/C [4]: 49 % of control
T/C [1]: 86 % of control

COc1ccc(C(C)c2cc3c(cc2OC)OCO3)cc1 (stereo unspecified)
T/C (dose: 12.5 mg/kg/injection, vehicle: saline with Tween-80): 17 % of control
T/C [5]: 18 % of control and 43 % of control
T/C [6]: 33 % of control

COC12[C@@H]3N[C@@H]3CN1C1=C(C(=O)C(NCCSSCCNC3=C(C)C(=O)C4=C(C3=O)C(COC(N)=O)[C@]3(OC)C5N[C@@H]5CN43)=C(C)C1=O)[C@@H]2COC(N)=O (stereo partly specified)
T/C (dose: 1.57 mg/kg/injection, vehicle: DMSO): 29 % of control
T/C (dose: 3.13 mg/kg/injection, vehicle: DMSO): -77 % of control
T/C (dose: 6.25 mg/kg/injection, vehicle: DMSO): -33 % of control
T/C (dose: 12.5 mg/kg/injection, vehicle: DMSO): 2 % of control

CCN(CC)c1ccc2[nH]c3c(C(N)=O)cc(=O)c(=O)c=3oc2c1
T/C [1]: 84 % of control
T/C [7]: 96 % of control

CCCCN1C(=O)N(c2ccc(OCC)cc2)C2N(CCCC)C1C(C)(C)C2(C)C (stereo unspecified)
T/C [8]: 60 % of control
T/C [9]: 51 % of control
T/C (dose: 60.0 mg/kg/injection, vehicle: saline with Tween-80): 88 % of control
T/C (dose: 120.0 mg/kg/injection, vehicle: saline with Tween-80): 94 % of control

Cc1ccccc1N=C(c1ccccc1)C1C(=O)c2ccccc2C1=O
T/C (dose: 150.0 mg/kg/injection, vehicle: other): 101 % of control
T/C (dose: 300.0 mg/kg/injection, vehicle: other): 75 % of control
T/C (dose: 600.0 mg/kg/injection, vehicle: other): 104 % of control
T/C (dose: 1200.0 mg/kg/injection, vehicle: other): 121 % of control

O=C1C2CC(Cl)C(SSC3CC4C(=O)N(SC(Cl)(Cl)C(Cl)Cl)C(=O)C4CC3Cl)CC2C(=O)N1SC(Cl)(Cl)C(Cl)Cl (stereo unspecified)
T/C [5]: 123 % of control
T/C [6]: 78 % of control
T/C [10]: 98 % of control
T/C [11]: 73 % of control

COC(=O)C1(F)C(=O)NC(=O)NC1OC (stereo unspecified)
T/C (dose: 400.0 mg/kg/injection, vehicle: Klucel (hydroxypropylcellulose) (HPC)): 115 % of control
T/C (dose: 800.0 mg/kg/injection, vehicle: Klucel (hydroxypropylcellulose) (HPC)): 116 % of control
T/C (dose: 1600.0 mg/kg/injection, vehicle: Klucel (hydroxypropylcellulose) (HPC)): 94 % of control

COc1cccc2c1C(=O)c1c(O)c3c(c(O)c1C2=O)C[C@@](O)(C(=O)CO)C[C@@H]3OC1CC(N)C(O)C(C)O1 (stereo partly specified)
T/C (dose: 2.0 mg/kg/injection, vehicle: saline): 11 % of control and 13 % of control and 25 % of control
T/C (dose: 4.0 mg/kg/injection, vehicle: saline): 9 % of control and 13 % of control and 20 % of control
T/C (dose: 8.0 mg/kg/injection, vehicle: saline): 7 % of control and -9 % of control and -8 % of control

C=C(CO)C(=O)OC1CC(=C)C2CC(O)C(=C)C2[C@H]2OC(=O)C(=C)C12 (stereo partly specified)
T/C (dose: 2.36 mg/kg/injection, vehicle: saline + alcohol): 64 % of control
T/C (dose: 4.72 mg/kg/injection, vehicle: saline + alcohol): 99 % of control
T/C (dose: 8.75 mg/kg/injection, vehicle: saline + alcohol): 86 % of control

Cc1c2ccccc2c(C)c2c1cc(C(=O)O)c1ccccc12
T/C (dose: 37.5 mg/kg/injection, vehicle: saline with Tween-80): 150 % of control
T/C [1]: 113 % of control
T/C [7]: 85 % of control

Nc1ccc2ccc(NS(=O)(=O)N3CCCCC3)cc2c1
T/C [1]: 94 % of control
T/C [7]: 60 % of control
T/C (dose: 600.0 mg/kg/injection, vehicle: saline with Tween-80): 32 % of control

Cc1ccc(C(=Nc2ccccc2)N=P(c2ccccc2)(c2ccccc2)c2ccccc2)cc1
T/C [6]: 90 % of control
T/C [11]: 82 % of control

CC(=O)c1cccc(NC2C(N)C(NC(=O)N(C)C)(C(C)O)C(C)(O)C2(O)COC(=O)c2c(C)cccc2O)c1 (stereo unspecified)
T/C (dose: 6.25 mg/kg/injection, vehicle: suspension in saline): 183 % of control
T/C (dose: 12.5 mg/kg/injection, vehicle: suspension in saline): 121 % of control
T/C (dose: 25.0 mg/kg/injection, vehicle: suspension in saline): 120 % of control
T/C (dose: 50.0 mg/kg/injection, vehicle: suspension in saline): 68 % of control

CC1=C(C(N)=O)C(c2ccccc2)NC(=S)N1 (stereo unspecified)
T/C (dose: 37.5 mg/kg/injection, vehicle: Klucel (hydroxypropylcellulose) (HPC)): 66 % of control
T/C (dose: 75.0 mg/kg/injection, vehicle: Klucel (hydroxypropylcellulose) (HPC)): 92 % of control
T/C (dose: 150.0 mg/kg/injection, vehicle: Klucel (hydroxypropylcellulose) (HPC)): 83 % of control
T/C (dose: 300.0 mg/kg/injection, vehicle: Klucel (hydroxypropylcellulose) (HPC)): 181 % of control

Cc1nc2c(N)cc(Cl)cc2[nH]1
T/C [10]: 89 % of control
T/C [11]: 95 % of control

S=C1CCCCN1
T/C (dose: 75.0 mg/kg/injection, vehicle: distilled water + Tween-80 + alcohol): 86 % of control
T/C (dose: 150.0 mg/kg/injection, vehicle: distilled water + Tween-80 + alcohol): 69 % of control

O=S(=O)(CCCCl)SCCCCl
T/C (dose: 40.0 mg/kg/injection, vehicle: suspension in saline): 81 % of control
T/C (dose: 80.0 mg/kg/injection, vehicle: suspension in saline): 86 % of control
T/C (dose: 160.0 mg/kg/injection, vehicle: suspension in saline): 105 % of control
T/C (dose: 320.0 mg/kg/injection, vehicle: suspension in saline): 112 % of control

COc1cccc2c1C(CO)N1C(C#N)C3CC(C(=O)O)C(C1C2)N3C (stereo unspecified)
T/C (dose: 3.75 mg/kg/injection, vehicle: saline): 24 % of control
T/C (dose: 6.25 mg/kg/injection, vehicle: saline): 32 % of control
T/C (dose: 7.5 mg/kg/injection, vehicle: saline with Tween-80): 64 % of control
T/C (dose: 7.5 mg/kg/injection, vehicle: saline): 73 % of control
T/C [2]: 76 % of control
T/C [8]: 57 % of control
T/C (dose: 15.0 mg/kg/injection, vehicle: saline): 59 % of control
T/C [3]: 33 % of control
T/C [9]: 59 % of control
T/C (dose: 30.0 mg/kg/injection, vehicle: saline): 39 % of control
T/C (dose: 50.0 mg/kg/injection, vehicle: saline): 52 % of control
T/C (dose: 60.0 mg/kg/injection, vehicle: saline): 17 % of control

c1ccc(OCC2CO2)c(OCC2CO2)c1 (stereo unspecified)
T/C [4]: 89 % of control
T/C [1]: -20 % of control
T/C [7]: 9 % of control

CC1=CCCC2C1(C)CCC(C)C2(C)Cc1cc(O)ccc1O (stereo unspecified)
T/C (dose: 100.0 mg/kg/injection, vehicle: Klucel (hydroxypropylcellulose) (HPC)): 16 % of control

NC(=O)c1[nH]cnc1O
T/C [1]: 151 % of control

Cc1cc(Br)c2nsnc2c1[N+](=O)[O-]
T/C [1]: 7 % of control and 26 % of control
T/C (dose: 1200.0 mg/kg/injection, vehicle: saline with Tween-80): 38 % of control
